In patent US10821079B2, “PKC activators and combinations thereof” (Cognitive Research Enterprises, Inc., priority 2011, dated 2020):

System: primary human cortical neurons
Experiment: Long-term culture of human primary cortical neurons (40 days)
Assay type: cell-based
Method: More specifically, human primary cortical neurons were grown in Neuronal Medium (ScienCell Cat No #1521) containing neuronal growth supplement (NGS) (Sciencell Cat No #1562).
Cells were plated on poly-l-lysine (0.001%) coated plates at a density of >10000 cells/cm2. Half of the media was replaced by new media every 3 days. DCPLA-ME or Bryostatin was dissolved in 100% ethanol and added at final concentration (100 nM for DCPLA-ME, 0.27 nM for Bryostatin). Fresh DCPLA-ME (100 nM) or Bryostatin (0.27 nM) was added every 3 days during media change. The experiments were continued for 40 days.
Human primary neurons (ScienCell Research Laboratories, USA) were thawed and plated on poly-L-lysine coated plates at a density of 10,000 cells per cm^2 and were maintained in neuronal medium (DMEM+high glucose+neuronal growth supplement, ScienCell Research Laboratories, USA) following the recommended method. Primary human neurons were then treated with either DCPLA-ME (100 nM) or bryostatin 1 (0.27 nM) for 40 days. Fresh drug was added every third day with 50% media change.

What does the source list for CCCCCC1CC1CC1CC1CCCCCCCC(=O)OC (centres unmarked) [DCPLA-ME, methyl 8-(2-((2-pentylcyclopropyl)methyl)cyclopropyl)octanoate]?
fractal dimension (neuritic branching) (100 nM): 1.40±0.03; number of colocalized puncta of synaptophysin and PSD-95 (100 nM): 230 % of control; number of synapses (in words) (100 nM): significantly increased; neurite-positive cells/field (100 nM, 40 days): 360±45 cells/field; expression levels of PKCε, PSD-95 and synaptophysin (in words) (compared to control or bryostatin 1-treated cells, 40 days): significantly higher
